Assay results: paper PMC6270778, “Novel Cinnamic Acid Derivatives as Antioxidant and Anticancer Agents: Design, Synthesis and Modeling Studies” (Molecules, 2014)
Where “and” joins values, the source holds several entries; their conditions need not be identical. Identical values can stand only once.

How the values were obtained:
[1] = Interaction with the stable radical DPPH
Experimental: The novel acids were studied for the antioxidant activity by the use of the sTable 2,2-diphenyl-1-picrylhydrazyl radical (DPPH) at concentrations 0.05 and 0.1 mM after 20 and 60 min (Table 2). In the DPPH assay, the dominant chemical reaction involved is the reduction of the DPPH radical by single electron transfer SET from the antioxidant. Phenolic compounds eg. […] The compounds presented reducing abilities which ranged nearly 29% (4ii), small differences were found among the compounds with time and concentration. […] Due to steric reasons the interaction of DPPH with the tested compounds is low.
To a solution of DPPH in absolute ethanol the appropriate volume of the compounds (0.05 and 0.1 mM final concentrations) dissolved in DMSO was added. The absorbance was recorded at 517 nm after 20 and 60 min at room temperature (Table 3).

[2] = test system: MDA-MB-231 (breast); assay: SRB cytotoxicity assay, MDA-MB-231; assay type: cell-based; details: Homo sapiens, 50% growth inhibition, 48 h exposure
Experimental: Human cancer cell lines used as targets were HT-29 (colon), A-549 (lung), OAW-42 (ovarian), MDA-MB-231 (breast), HeLa (immortal cells from cervical cancer). All cells were obtained from the American Type Culture Collection (ATCC). Cells were routinely grown as monolayer cell cultures in T-75 flasks (Costar) in an atmosphere containing 5% CO2 in air and 100% relative humidity at 37 °C and subcultured twice a week, restricting the total number of cell passages below 20. The culture medium used was Dulbecco’s modified Eagle’s medium (DMEM, Gibco, Grand Island, NY, USA) supplemented with 10% fetal bovine serum (Gibco), 2 mM glutamine (Sigma), 100 μg/mL streptomycin and 100 IU/mL penicillin.
Cell passages were carried out by detaching adherent, logarithmically growing cells after addition of 2–3 mL of a mixture of 0.05% solution of trypsin (Gibco, 1:250) in phosphate-buffered saline (PBS) with 0.02% EDTA and incubation for 3–5 min at 37 °C. For the experiments, cells were plated (100 μL containing 10,000 cells/well) in 96-well flat-bottom microplates microplates (Costar-Corning, Acton, MA 01720, USA) so that untreated cells were in exponential growth phase at the time of cytotoxicity evaluation. Cells were left for 24 h at 37 °C to resume exponential growth and stabilization and afterwards exposed to tested agents for 48 h by the addition of an equal volume (100 μL) of either complete culture medium (control wells), or twice the final drug concentrations diluted in complete culture medium (test wells). Drug cytotoxicity was measured by means of the SRB colorimetric assay estimating the survival fractions (SF) as the percent of control (untreated cells) absorbance. The SRB assay was carried out as previously described and modified by our group. In brief, culture medium was aspirated prior to fixation using a microplate-multiwash device (Tri-Continent Scientific, Inc., Grass Valley, CA, USA) and 50 μL of 10% cold (4 °C) trichloroacetic acid (TCA) were gently added to the wells. Microplates were left for 30 min at 4 °C, washed five times with deionized water and left to dry at room temperature for at least 24 h. Subsequently, 70 μL of 0.4% (w/v) sulforhodamine B (Sigma) in 1% acetic acid solution were added to each well and left at room temperature for 20 min. SRB was removed and the plates were washed five times with 1% acetic acid before air drying. Bound SRB was solubilized with 200 μL of 10 mM unbuffered Tris-base solution and plates were left on a plate shaker for at least 10 min. Absorbance was read in a 96-well plate reader at 492 nm subtracting the background measurement at 620 nm. The test optical density (OD) value was defined as the absorbance of each individual well, minus the blank value (“blank” is the mean optical density of the background control wells, n = 8). Mean values and the coefficient of variation (CV) from six replicate wells were calculated automatically. Results were expressed as the “survival fraction” (SF), as shown below.
For each tested compound a dose-effect curve was produced. Sextuplicate determinations gave a CV (Standard Deviation/mean %) of much less than 10%, resulting in standard error (SE) which was very low in all cases. The data showing inhibition of cellular growth are expressed as the fraction of cells that remains unaffected (fu) (survival fraction, SF), which is derived from the following equation: fu = ODx/ODc where ODx and ODc represent the test and the control optical density, respectively.

[3] = Superoxide radical scavenging activity (non-enzymatic, PMS/NADH, NBT method); details: 0.1 mM; no = no action under the used experimental conditions
Experimental: The superoxide anion radical (O2^−·) is less toxic than the hydroxyl radical, but still being one of the most known toxic ROS. Two different experimental assays are followed for the determination of superoxide anion radical scavenging activity: (i) one involves an enzymatic production of superoxide anions and (ii) the other is supported by a non- enzymatic procedure. Herein the test is performed at 0.1 mM concentration, generating superoxide anion radicals by a non-enzymatically assay (Table 3). Compound 1i presented the highest activity, followed by compound 1ii (75% and 50%, respectively).
Superoxide radicals were produced non-enzymatically by mixing PMS, NADH and air–oxygen. The nitroblue tetrazolium method was used for the estimation of the produced radicals. The reaction mixture containing compounds (0.1 mM), 3 μM PMS, 78 μM NADH, and 25 μM NBT in 19 μM phosphate buffer pH 7.4 was incubated for 2 min at room temperature. The acrylic acids were preincubated for 2 min before adding NADH (Table 4) and the absorption was recorded at 560 nm.

Compound | melting point | RA % (±SD), DPPH ([1]; 0.05 mM, 20 min) | RA % (±SD), DPPH ([1]; 0.05 mM, 60 min) | RA % (±SD), DPPH ([1]; 0.1 mM, 20 min) | RA % (±SD), DPPH ([1]; 0.1 mM, 60 min) | IC50 [2] | O2−· (%) (±SD) [3]
N#Cc1ccc(C=C(C(=O)O)c2ccccc2)cc1 [Compound 1i, 3-(4-Cyanophenyl)-2-phenylacrylic acid] | 155 to 157 °C | 12 ± 0.3% | 14 ± 0.1% | 28 ± 0.6% | 20 ± 0.8% | > 240 µM | 75% and 75 ± 1.0%
N#Cc1ccc(C=CC(=O)O)cc1 [Compound 1ii, 3-(4-Cyanophenyl)acrylic acid] | 258 to 260 °C | 13 ± 0.3% | 9 ± 0.03% | 23 ± 0.5% | 21 ± 1.0% | > 240 µM | 50% and 50 ± 0.5%
O=C(O)C(=CC=Cc1ccc([N+](=O)[O-])cc1)c1ccccc1 [Compound 2i, 5-(4-Nitrophenyl)-2-phenylpenta-2,4-dienoic acid] | 163 to 165 °C | 10 ± 0.04% | 11 ± 0.02% | 23 ± 0.7% | 23 ± 0.9% | 199 ± 1.9 µM | no
O=C(O)C=CC=Cc1ccc([N+](=O)[O-])cc1 [Compound 2ii, 5-(4-Nitrophenyl)penta-2,4-dienoic acid] | 170 to 172 °C |  | 13 ± 0.04% | 29 ± 1.0% | 24 ± 0.6% | > 240 µM | no
O=C(O)C=CC=Cc1ccccc1 [Compound 3ii, 5-Phenylpenta-2,4-dienoic acid] |  | 11 ± 0.06% | 7 ± 0.0% | 20 ± 0.2% | 16 ± 0.05% | > 240 µM | no

Continued, in another order:

melting point | Compound | RA % (±SD), DPPH ([1]; 0.05 mM, 20 min) | RA % (±SD), DPPH ([1]; 0.05 mM, 60 min) | RA % (±SD), DPPH ([1]; 0.1 mM, 20 min) | RA % (±SD), DPPH ([1]; 0.1 mM, 60 min) | IC50 [2] | O2−· (%) (±SD) [3]
145 to 147 °C | O=C(O)C(=CC=Cc1ccccc1)c1ccccc1 [Compound 3i, 2,5-Diphenylpenta-2,4-dienoic acid] | 4 ± 0.02% | 3 ± 0.0% | 5 ± 0.0% | 6 ± 0.04% | > 240 µM | no
135 to 136 °C | O=C(O)C(=CC(Br)=Cc1ccccc1)c1ccccc1 [Compound 4i, 4-Bromo-2,5-diphenylpenta-2,4-dienoic acid] | 7 ± 0.03% | 4 ± 0.01% | 8 ± 0.03% | 5 ± 0.0% | 250 ± 1.2 µM | no
169 to 171 °C | O=C(O)C=CC(Br)=Cc1ccccc1 [Compound 4ii, 4-Bromo-5-phenylpenta-2,4-dienoic acid] | 17 ± 0.02% | 13 ± 0.05% | 30 ± 0.9% | 29 ± 0.6% | 47.5 ± 0.7 µM | no
